Laboratory results taken from article PMC12916490 (Molecular Psychiatry, 2025).

Key:
hD2 = biological target: T1, hD2 (Homo sapiens, UniProt P14416); test: Radioligand binding, hD2 receptor ([3H]spiperone)
T1 construct: expressed in transfected cells; host or cells: HEK 293 cells (membrane preparation)
Experimental: Binding affinities at human monoamine receptors and transporters were assessed as previously reported. A detailed description of the methodology is provided in the Supplementary information.
(§1) Data analysis was performed with Prism software (version 10.1.2, GraphPad Software, Boston, MA, USA). The IC50 values from the radioligand binding assays were determined by nonlinear regression, using three independent concentration-response curves fitted to a one-site model. The Cheng-Prusoff equation was used to calculate Kᵢ values for the competing ligands. EC50 values were determined by applying nonlinear regression to concentration-response curves. Bias factors (β) were calculated based on the relative intrinsic activity approach. More detailed information can be found in the Supplementary information. Mean values for total number of HTR, change in body temperature from pre to post session (Δ°C), and total distance traveled (cm) for each drug dose were compared (p < 0.05) via Welch’s ANOVA with Dunnett’s T3 post test, comparing all doses to respective vehicle controls (0 mg/kg). Welch’s ANOVA with Dunnett’s T3 post test was also used to compare drug concentrations, but the data were compared to DOM in this case. Dose–response relationships for HTR and locomotor activities were plotted using bell-shaped curve fits, while temperature change data were plotted using four-parameter non-linear regression curve fits. The ascending phase of the HTR curve for each drug was used to determine ED50 potency values from four parameter non-linear regression fits. For combined DOM and DOAM administration, the plasma, brain tissue, and brain dialysate drug concentrations were compared using paired t-tests (p < 0.05). Ratios were compared using Holm-Sidak’s post hoc test following a repeated-measures one-way ANOVA (F (1.709, 6.835) = 70.80; p < 0.0001).
3.1 Assessment of receptor and transporter binding affinities
Membrane preparations were prepared from cells transfected with the respective target. The membrane preparations were then incubated with selective radioligands at concentrations equal to the corresponding Kd and displacement of the ligand by the drugs was measured. The difference between total binding and nonspecific binding (determined in the presence of selective competitors) was defined as specific binding of the radioligand to the target receptor. The following transfected cell lines were used for the binding assays: HEK 293 cells (h5-HT1A, h5-HT2A, h5-HT2B, h5-HT2C, and hD2 receptors, hDAT, hNET, and hSERT), Chinese hamster ovary cells (hα 1A receptor), and Chinese hamster lung cells (hα 2A receptor).
3.1.1 Membrane preparations for receptor and transporter binding
For producing membrane preparations, transfected cells were harvested with trypsin/EDTA, washed with ice-cold phosphate buffered saline, and then pelleted by centrifugation (210 × g for 5 min at 4 °C). The pellets were frozen and stored at -80 °C until use. Frozen pellets were resuspended in 20 m L (receptor binding) or 400 m L (transporter binding) buffer (20 mM HEPES -NaOH, 10 mM EDTA, pH 7.4), and homogenized at 1,100 × g for 20 s (receptor binding) or 560 × g for 15 s (transporter binding); the homogenates were then centrifuged at 48,000 × g for 30 min at 4 °C. […]
Competitive binding at the h5-HT1A and h5-HT2A receptor was determined using 0.90 nM [ 3H]8-hydroxy-2-(di-n-propylamine)tetralin ([ 3H]8-OH-DPAT; h5-HT1A receptor agonist) and 0.40 nM [3H]ketanserin (h5-HT2 receptor antagonist) as radioligands. […]

C57BL/6 J mice = test: Head-twitch response (HTR) dose-response in mice, 30-min session; format: in vivo, mouse; settings: for HTR (count/30 min): mean ± SEM; for ED50: Mus musculus, sc, 0.5 h, read-out: HTR in mice ED50 (95% CI), ascending phase of dose-response curve
Experimental: Behavioral studies were conducted as previously described with minor modifications. Male C57BL/6 J mice (The Jackson Laboratory #000664, 24 mice/drug) were purchased at 8 weeks old, group housed for acclimation (3–5 per cage for 1–2 weeks) under a 12:12 light:dark cycle (07:00 local time = lights on), with ad libitum access to food and water at the NIDA IRP facilities in Baltimore, MD, USA. All experiments were approved by the NIDA IRP Animal Care and Use Committee. After acclimation to the vivarium facilities, each mouse was briefly anesthetized with isoflurane and a temperature transponder (14 × 2 mm, model IPTT-300, Bio Medic Data Systems, Inc., Seaford, DE, USA) was implanted subcutaneously (s.c.) on the back, posterior to the shoulder blades. After the implant, mice were single housed and allowed one week recovery prior to the start of experiments. […] Drugs were randomly assigned and administered s.c. as the weight of the form used at an injection volume of 0.01 mL/g body weight.
During experimental testing, mice were tested once every 1–2 weeks to avoid potential tolerance to behavioral effects of the test drugs and were tested 2–3 times in total per drug. Each test session began with a brief 5 min acclimation period to the testing arenas, followed by recording baseline body temperature using a handheld wand that was sensitive to the signals emitted from the s.c. transponder. After this, mice were injected s.c. with appropriate doses of test drug and returned to the chambers for a 30-min test session. During the dose-response sessions, locomotor activity was continuously recorded using open field chambers with photobeam arrays (Coulbourn Instruments, Holliston, MA, USA) that were modified with cylindrical inserts and custom floor panels that also allowed video recordings of each mouse to later quantify HTR activity (GoPro Hero 7 camera; 960p resolution at 120 frames per second). Videos for each mouse were analyzed post session using commercially available software used to quantify HTR as previously described.
as §1
Locomotor activity and body temperature were also assessed to monitor other pharmacological effects of the drugs that may impact the HTR. […]

T1 sequence (P14416 whole entry): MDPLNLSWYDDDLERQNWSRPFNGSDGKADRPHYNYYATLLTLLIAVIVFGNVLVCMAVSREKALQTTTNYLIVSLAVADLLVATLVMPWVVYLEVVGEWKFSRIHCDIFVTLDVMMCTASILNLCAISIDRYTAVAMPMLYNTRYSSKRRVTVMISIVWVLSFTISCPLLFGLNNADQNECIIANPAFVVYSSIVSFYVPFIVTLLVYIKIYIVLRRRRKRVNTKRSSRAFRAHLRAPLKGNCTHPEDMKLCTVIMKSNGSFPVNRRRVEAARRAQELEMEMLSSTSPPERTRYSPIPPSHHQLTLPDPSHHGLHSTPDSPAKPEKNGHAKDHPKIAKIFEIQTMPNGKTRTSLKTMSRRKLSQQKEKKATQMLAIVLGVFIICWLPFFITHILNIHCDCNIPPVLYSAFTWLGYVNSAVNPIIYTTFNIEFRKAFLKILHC

| SMILES | Ki (hD2) [µM] | HTR (count/30 min) (C57BL/6 J mice; 0.03 mg/kg s.c.) [count] | HTR (count/30 min) (C57BL/6 J mice; 0.1 mg/kg s.c.) [count] | HTR (count/30 min) (C57BL/6 J mice; 0.3 mg/kg s.c.) [count] | HTR (count/30 min) (C57BL/6 J mice; 1 mg/kg s.c.) [count] | HTR (count/30 min) (C57BL/6 J mice; 3 mg/kg s.c.) [count] | HTR (count/30 min) (C57BL/6 J mice; 10 mg/kg s.c.) [count] | HTR (count/30 min) (C57BL/6 J mice; 30 mg/kg s.c.) [count] | ED50 (C57BL/6 J mice; s.c., 30 min session) [mg/kg] | HTR in mice Emax (C57BL/6 J mice; s.c., 30 min session) [total HTR count] | HTR in mice Maximum rate (C57BL/6 J mice; s.c., 30 min session) [HTR count/5 min] | HTR (count/30 min) (C57BL/6 J mice; 0.01 mg/kg s.c.) [count] | Fold higher total HTR counts of DOM vs DOAM (C57BL/6 J mice; mouse, in vivo) [fold] | Peak HTR rate (C57BL/6 J mice; s.c., 30 min session) [events/5 min] | Time of peak HTR rate post drug administration (C57BL/6 J mice; s.c., 30 min session) [min] |
| --- | --- | --- | --- | --- | --- | --- | --- | --- | --- | --- | --- | --- | --- | --- | --- |
| COc1ccc(OC)c(CC(C)N)c1.Cl (stereo not shown) [2,5-DMA, 2,5-Dimethoxyamphetamine hydrochloride] | > 13 | 5.8 ± 1.9 | 6.7 ± 0.7 | 7.3 ± 1.2 | 11.7 ± 2.1 | 15.3 ± 0.6 | 23.2 ± 1.9 | 16.2 ± 5.0 | 1.39 | 23 | 5 |  |  |  |  |
| CCCc1cc(OC)c(CC(C)N)cc1OC.Cl (stereo not shown) [DOPR, 4-propyl-2,5-dimethoxyamphetamine hydrochloride] |  | 9.7 ± 2.2 | 22.7 ± 2.8 | 53.6 ± 2.9 | 98.2 ± 2.3 | 58.0 ± 9.6 | 21.2 ± 3.0 |  | 0.42 | 98 | 20 | 6.2 ± 0.9 |  |  |  |
| COc1cc(CC(C)N)c(OC)cc1C (stereo not shown) [DOM, 4-methyl-2,5-dimethoxyamphetamine] | > 7.5 | 10.2 ± 1.9 | 23.4 ± 2.1 | 39.0 ± 3.3 | 90.0 ± 4.4 | 119.2 ± 9.7 | 88.0 ± 18.1 | 13.7 ± 3.9 | 0.66 | 119 | 24 |  | 2.6 | 24 | 5 to 10 |
| CCCCc1cc(OC)c(CC(C)N)cc1OC (stereo not shown) [DOBU, 4-butyl-2,5-dimethoxyamphetamine] | > 13 | 6.0 ± 0.9 | 9.0 ± 1.7 | 12.7 ± 1.3 | 40.2 ± 2.9 | 78.7 ± 6.2 | 69.3 ± 4.7 | 17.5 ± 4.5 | 1.29 | 79 | 16 |  |  |  |  |
| CCc1cc(OC)c(CC(C)N)cc1OC (stereo not shown) [DOET, 4-ethyl-2,5-dimethoxyamphetamine] | > 13 |  |  |  |  |  |  |  |  |  |  |  |  |  |  |
| CCCCCc1cc(OC)c(CC(C)N)cc1OC (stereo not shown) [DOAM, 4-amyl-2,5-dimethoxyamphetamine] | > 13 | 7.8 ± 1.6 | 6.2 ± 1.6 | 6.5 ± 1.2 | 9.5 ± 1.2 | 28.5 ± 2.6 | 44.8 ± 3.6 | 26.0 ± 3.7 | 2.76 | 45 | 9 |  |  |  |  |
